Source: ChEMBL document CHEMBL1201862, “PubChem BioAssay data set” (2004)
Activity calls are given as the source filed them.

Columns and labels:
[1] = molecular target: T1, RNA-binding protein pos-1 (Caenorhabditis elegans, UniProt G5EF15); test: inhibitors of POS-1/mex-3 RNA binding, dose response, biochemical, fluorescence polarization (AID 1964);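 also: purified POS-1 fused to maltose binding protein made in E. coli; potency of compounds blocking POS-1 binding to fluorescent RNA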
T1 sequence (G5EF15 whole entry): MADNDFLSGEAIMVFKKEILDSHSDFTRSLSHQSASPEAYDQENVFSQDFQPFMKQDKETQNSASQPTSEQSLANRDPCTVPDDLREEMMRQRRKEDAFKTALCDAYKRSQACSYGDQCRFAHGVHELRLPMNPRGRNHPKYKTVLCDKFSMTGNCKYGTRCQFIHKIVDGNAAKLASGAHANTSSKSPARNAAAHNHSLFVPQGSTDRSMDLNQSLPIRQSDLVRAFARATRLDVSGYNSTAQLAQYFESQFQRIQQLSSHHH

[2] = HEp-2 cell cytotoxicity, dose response, cytotoxicity control for RSV inhibitor project, HTS (AID 2410); format: functional; conditions: human respiratory syncytial virus
Cytochrome P450 2C9 = Cytochrome P450 2C9 (Homo sapiens, UniProt P11712)
Chain of Cytochrome P450 2C9 (P11712 whole entry): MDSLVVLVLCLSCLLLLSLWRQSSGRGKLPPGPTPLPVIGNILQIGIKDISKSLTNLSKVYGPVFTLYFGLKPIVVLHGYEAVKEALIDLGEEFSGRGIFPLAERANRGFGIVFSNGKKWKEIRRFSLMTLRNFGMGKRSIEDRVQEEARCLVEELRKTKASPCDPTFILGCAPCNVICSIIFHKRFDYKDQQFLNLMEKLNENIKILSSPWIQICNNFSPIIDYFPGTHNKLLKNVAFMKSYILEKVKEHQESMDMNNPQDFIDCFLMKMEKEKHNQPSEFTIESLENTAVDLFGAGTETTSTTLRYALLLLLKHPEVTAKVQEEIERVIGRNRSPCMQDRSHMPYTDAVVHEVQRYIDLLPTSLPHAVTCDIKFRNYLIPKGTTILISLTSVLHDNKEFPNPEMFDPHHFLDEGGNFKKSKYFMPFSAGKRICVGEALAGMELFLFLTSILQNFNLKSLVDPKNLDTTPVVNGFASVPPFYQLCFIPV

[3] = Shn3 3'UTR reporter inhibitors, dose response, cell-based, Clone20 osteoblasts, firefly luciferase, cherry-picked (AID 624132); format: functional;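 also: firefly luciferase luminescence from reporter carrying the Shn3 3'UTR in osteoblasts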
[4] = control 3'UTR Renilla luciferase suppression, dose response, counter-screen for Shn3 inhibitor project, cell-based, Clone20-Shn3RL, cherry-picked (AID 624133); format: functional
[5] = test system: Streptococcus sp. 'group A'; test: growth inhibition of control SK(-) GAS strain, dose response, counter-screen for streptokinase expression inhibitor project, luminescence, kanamycin, BacTiterGlo, confirmation (AID 1900); format: functional, organism-based
Streptokinase A = molecular target: T2, Streptokinase A (Streptococcus pyogenes serotype M1, UniProt P10520); test: S. pyogenes streptokinase expression inhibitors, potency, dose response, plasminogen activation absorbance, OD405 (AID 1914); format: functional, Streptococcus pyogenes M1 GAS;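 also: secreted streptokinase activity via plasminogen activation per viability signal from cell pellet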
T2 sequence (P10520 whole entry): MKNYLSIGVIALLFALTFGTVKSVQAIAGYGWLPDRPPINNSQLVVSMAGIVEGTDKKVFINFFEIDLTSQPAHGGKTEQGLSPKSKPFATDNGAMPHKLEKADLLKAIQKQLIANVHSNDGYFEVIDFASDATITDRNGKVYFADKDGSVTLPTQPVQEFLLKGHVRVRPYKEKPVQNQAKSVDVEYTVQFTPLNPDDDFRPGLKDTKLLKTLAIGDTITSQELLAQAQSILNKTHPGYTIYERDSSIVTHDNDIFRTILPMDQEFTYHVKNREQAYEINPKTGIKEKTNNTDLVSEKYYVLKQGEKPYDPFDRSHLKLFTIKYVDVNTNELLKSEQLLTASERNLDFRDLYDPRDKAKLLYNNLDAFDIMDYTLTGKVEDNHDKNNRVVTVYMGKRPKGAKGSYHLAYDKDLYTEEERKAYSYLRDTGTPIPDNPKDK

Streptococcus = test: Group A Streptococcus viability loss, dose response, counter-screen for streptokinase expression inhibitor project, luminescence, BacTiterGlo (AID 1915); format: functional, organism-based;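 also: potency for reduction of bacterial viability or growth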
INS1 = test: beta cell apoptosis inhibitors, cytokine rescue, dose response, luminescence, retest (AID 449756); format: functional, cell-based; conditions: Rattus norvegicus;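 also: cell death triggered by IL-1 beta plus TNF-alpha plus IFN-gamma mixture; protective hits raise ATP signal compared with cytokine alone wells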
Protein skinhead-1 = molecular target: T3, Protein skinhead-1 (Caenorhabditis elegans, UniProt P34707); format: functional
T3 sequence (P34707 whole entry): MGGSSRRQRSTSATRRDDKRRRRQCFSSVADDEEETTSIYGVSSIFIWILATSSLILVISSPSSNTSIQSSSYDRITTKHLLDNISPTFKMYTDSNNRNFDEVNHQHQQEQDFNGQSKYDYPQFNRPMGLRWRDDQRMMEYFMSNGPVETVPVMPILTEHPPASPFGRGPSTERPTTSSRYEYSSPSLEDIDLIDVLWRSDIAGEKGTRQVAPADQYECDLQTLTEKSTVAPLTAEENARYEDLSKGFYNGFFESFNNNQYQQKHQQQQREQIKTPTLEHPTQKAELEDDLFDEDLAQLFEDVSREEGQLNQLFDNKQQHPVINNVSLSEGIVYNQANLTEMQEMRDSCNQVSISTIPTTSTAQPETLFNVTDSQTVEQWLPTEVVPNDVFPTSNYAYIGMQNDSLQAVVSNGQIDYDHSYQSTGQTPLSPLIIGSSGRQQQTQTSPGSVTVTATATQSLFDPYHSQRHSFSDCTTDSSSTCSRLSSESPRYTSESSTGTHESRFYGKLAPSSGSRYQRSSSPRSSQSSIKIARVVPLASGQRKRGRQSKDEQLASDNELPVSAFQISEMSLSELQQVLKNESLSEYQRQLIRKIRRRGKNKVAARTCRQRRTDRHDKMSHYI

[6] = Luminescence Cell-Based Dose Response HTS to Identify Activators of Luciferase Translation or Activity in H4 […] Cells. [Related pubchem assays: 1829 (Project Summary), 1814 (Primary HTS)]; format: functional
H4 = test: Luminescence Cell-Based Dose Response HTS to Identify Activators of 5'UTR Stem-Loop Driven Prion Protein mRNA Translation in H4 Neuroglioblastoma Cells. [Related pubchem assays: 1829 (Project Summary), 1814 (Primary HTS)]; format: functional; conditions: Homo sapiens
[7] = molecular target: T4, Replicative DNA helicase DnaB (Mycobacterium tuberculosis, UniProt P9WMR3); test: DnaB intein splicing inhibitors, dose response, biochemical, cell-free fluorescence (AID 449749); format: functional
T4 sequence (P9WMR3 whole entry): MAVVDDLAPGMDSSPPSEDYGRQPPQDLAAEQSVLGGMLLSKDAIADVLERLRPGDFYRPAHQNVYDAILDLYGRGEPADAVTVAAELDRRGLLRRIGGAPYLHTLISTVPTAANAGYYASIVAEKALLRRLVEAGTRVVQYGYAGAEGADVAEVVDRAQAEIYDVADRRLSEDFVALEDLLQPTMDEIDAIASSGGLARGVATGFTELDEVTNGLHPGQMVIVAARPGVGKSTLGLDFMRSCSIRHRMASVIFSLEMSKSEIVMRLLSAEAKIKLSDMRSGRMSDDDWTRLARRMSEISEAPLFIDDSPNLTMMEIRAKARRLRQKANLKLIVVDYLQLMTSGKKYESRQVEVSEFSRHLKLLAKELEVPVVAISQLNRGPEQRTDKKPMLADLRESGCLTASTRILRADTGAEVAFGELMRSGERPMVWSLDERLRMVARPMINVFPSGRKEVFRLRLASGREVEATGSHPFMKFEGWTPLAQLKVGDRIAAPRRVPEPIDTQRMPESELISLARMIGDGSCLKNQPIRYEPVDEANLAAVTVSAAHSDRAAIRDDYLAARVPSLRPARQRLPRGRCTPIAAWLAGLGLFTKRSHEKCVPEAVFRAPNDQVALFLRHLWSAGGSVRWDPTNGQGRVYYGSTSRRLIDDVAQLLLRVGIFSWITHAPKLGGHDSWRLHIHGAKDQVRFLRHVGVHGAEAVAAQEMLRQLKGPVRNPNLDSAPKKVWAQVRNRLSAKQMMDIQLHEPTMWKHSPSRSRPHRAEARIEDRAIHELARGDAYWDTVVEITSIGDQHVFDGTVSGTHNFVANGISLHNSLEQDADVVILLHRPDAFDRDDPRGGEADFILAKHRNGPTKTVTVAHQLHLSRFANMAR

Protein RecA = molecular target: T5, Protein RecA (Mycobacterium tuberculosis, UniProt P9WHJ3); test: Fluorescence Cell-Free Homogeneous Dose Retest to Identify Inhibitors of RecA-Intein Splicing Activity. [Related pubchem assays (depositor defined):AID2097, AID2223, AID489010, AID492950]; format: functional
T5 sequence (P9WHJ3 whole entry): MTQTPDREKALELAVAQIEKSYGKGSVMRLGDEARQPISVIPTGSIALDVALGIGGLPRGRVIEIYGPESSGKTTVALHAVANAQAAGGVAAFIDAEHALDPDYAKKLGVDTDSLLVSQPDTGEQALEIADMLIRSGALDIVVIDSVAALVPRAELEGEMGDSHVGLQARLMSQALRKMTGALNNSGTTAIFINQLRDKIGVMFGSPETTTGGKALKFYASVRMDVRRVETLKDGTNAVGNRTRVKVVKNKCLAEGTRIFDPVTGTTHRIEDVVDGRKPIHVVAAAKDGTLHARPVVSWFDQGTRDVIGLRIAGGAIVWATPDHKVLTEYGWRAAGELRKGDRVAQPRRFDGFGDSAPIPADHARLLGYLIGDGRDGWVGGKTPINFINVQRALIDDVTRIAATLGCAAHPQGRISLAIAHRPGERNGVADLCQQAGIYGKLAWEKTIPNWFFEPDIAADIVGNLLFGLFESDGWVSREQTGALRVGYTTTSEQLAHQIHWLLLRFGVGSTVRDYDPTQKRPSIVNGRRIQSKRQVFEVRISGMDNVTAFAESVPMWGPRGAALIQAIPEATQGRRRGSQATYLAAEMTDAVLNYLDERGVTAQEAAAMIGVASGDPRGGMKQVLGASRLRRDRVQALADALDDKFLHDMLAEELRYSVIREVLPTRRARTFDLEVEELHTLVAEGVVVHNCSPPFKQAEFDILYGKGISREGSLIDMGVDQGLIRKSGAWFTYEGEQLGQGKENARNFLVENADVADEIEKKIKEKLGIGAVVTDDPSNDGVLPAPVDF

Cc1cc(/C=C2\C(=O)NC(=O)N(c3ccc(Cl)cc3)C2=O)c(C)n1C
EC50 [1]: 63.5 µM (active)

CC(=O)C(C)Oc1ccc2c3c(c(=O)oc2c1)CCCC3 (stereo unspecified)
CC50 [2]: 31.8 µM (active)

O=C(Nc1ccc(S(=O)(=O)N2CCCCC2)cc1)C1CC(=O)N(c2ccc(Cl)cc2)C1 (stereo unspecified)
CC50 [2]: 19.9 µM (active)

COc1cccc(NC(=O)Nc2nnc(N3C(C)CCCC3C)s2)c1 (stereo unspecified)
CC50 [2]: > 50 µM (active)

COc1cc(CNCc2cccs2)cc(Br)c1OC
AC50 (Cytochrome P450 2C9): 1.41 µM (inconclusive)

CCOC(=O)C1CCN(C(=O)c2sc3nc(C)nc(N4CCC(C)CC4)c3c2C)CC1
AC50 [3]: 5.26 µM (active) | AC50 [4]: 9.01 µM (active)

O=C(Nc1ccc2ccccc2c1)c1ccc(NS(=O)(=O)c2ccc(Br)s2)cc1
CC50 [2]: > 50 µM (active) | EC50 [5]: 2 µM (active) | EC50 (Streptokinase A): > 150 µM (not active) | EC50 (Streptococcus): 5.03 µM (active)

N#Cc1c(Nc2ccccc2)sc(C(=O)c2ccc(F)cc2)c1N
AC50 (INS1): 20.9 µM (active)

Cc1c(NC(=O)/C(C#N)=C/c2ccc(-c3ccc(Cl)c(Cl)c3)o2)c(=O)n(-c2ccccc2)n1C
CC50 [2]: 13.3 µM (active) | IC50 (Protein skinhead-1): > 100 µM (inactive)

N#Cc1ccc(C(=O)Nc2nc(-c3cccs3)c(C(=O)C(F)(F)F)s2)cc1
AC50 (INS1): 4.75 µM (active)

Cc1ccccc1C1CCCN(C(=O)c2cc(COc3c(F)cccc3F)on2)C1 (stereo unspecified)
CC50 [2]: 21.6 µM (active)

O=[N+]([O-])c1cccc(-c2c(-c3ccccc3)ncc3cc(F)ccc23)c1
IC50 (Protein skinhead-1): 88.7 µM (inactive)

Clc1ccccc1-c1ncc(-c2ccccc2)o1
IC50 (Protein skinhead-1): 37.3 µM (active)

COCCn1cnnc1SCC(=O)Nc1cccc(S(=O)(=O)N2CCCCC2)c1
IC50 (Protein skinhead-1): > 100 µM (inactive)

CC1(c2ccccc2)ON(c2ccccc2C(F)(F)F)C1=O (stereo unspecified)
CC50 [2]: 49.9 µM (active)

N#Cc1cc2c(nc1SCC(=O)Nc1sc3c(c1C#N)CCC3)CCCC2
EC50 [6]: > 120 µM (not active) | EC50 (H4): 16 µM (active)

Cc1ccc2sc3ccc(NC(=O)c4ccccc4Cl)cc3c(=O)c2c1
CC50 [2]: 15.9 µM (active)

Cc1ccc(OCCn2cc(C#N)c3ccccc32)cc1
CC50 [2]: 28.8 µM (active)

COc1cccc(-c2cncnc2NCCc2c[nH]c3ccc(OC)cc23)c1
AC50 (Cytochrome P450 2C9): 0.1 µM (inconclusive)

Cc1ccccc1Oc1cc(NC(=O)CCCn2nc(C)c([N+](=O)[O-])c2C)cc([N+](=O)[O-])c1
AC50 (INS1): 6.96 µM (active)

COc1ccc2ccc3c(c2c1)N=C[C@]1(O3)N(C)c2ccccc2C1(C)C
EC50 [5]: 35.4 µM (active) | EC50 (Streptokinase A): 3.17 µM (active) | EC50 (Streptococcus): > 150 µM (not active) | AC50 [7]: > 380 µM (inactive) | EC50 (Protein RecA): 3.66 µM (active)

CC1CCc2c(sc3nc(CSc4nc[nH]n4)nc(O)c23)C1 (stereo unspecified)
CC50 [2]: 24.2 µM (active)

COc1ccc(Br)cc1CN(C)CC(O)COc1ccc(Br)cc1 (stereo unspecified)
IC50 (Protein skinhead-1): > 100 µM (inactive)

CC(Sc1nnc(C(C)N(C)C)n1-c1ccc(Cl)cc1)C(=O)Nc1ccc2c(c1)OCO2 (stereo unspecified)
AC50 (Cytochrome P450 2C9): 15.8 µM (inconclusive)

O=C1/C(=C/c2cccs2)CCc2ccccc21
IC50 (Protein skinhead-1): 18.6 µM (active)

CCOc1ccc2cc(/C=C/C(=O)c3ccco3)c(Cl)nc2c1
CC50 [2]: 47.7 µM (active)

CCCCOc1ccc(C(=O)NC)cc1
IC50 (Protein skinhead-1): > 100 µM (inactive)

COCCNC(=O)CSc1ncnc2sccc12
AC50 (Cytochrome P450 2C9): 28.2 µM (inconclusive)

Cc1cccc(C(C)(C)C)c1OCCN1CCCC1
AC50 [3]: 34.2 µM (active) | AC50 [4]: 9.87 µM (active)

O=c1c2ccccc2oc2ccc(Oc3ccccc3)cc12
IC50 (Protein skinhead-1): 22.5 µM (active)

Cc1ccc(NC2=NC(=O)/C(=C\c3ccc(C)s3)S2)cc1
IC50 (Protein skinhead-1): > 100 µM (inactive)

COc1ccccc1N(Cc1ccccc1)S(=O)(=O)c1cccc(C(=O)Nc2ccccn2)c1
CC50 [2]: 11.6 µM (active)

Cc1c(C(C)(C)O)[nH]c2ccc(C(F)(F)F)cc12
CC50 [2]: 33.8 µM (active)

N#CC1(Nc2ccc(-c3ccc(Cl)cc3)cc2)CCCC1
IC50 (Protein skinhead-1): 26.1 µM (active)

C=CCC1CCCCC1=C(C#N)c1ccccc1 (stereo unspecified)
IC50 (Protein skinhead-1): > 100 µM (inactive)

COc1cccc(/C=N/NC(=O)c2cc(-c3ccccn3)nc3ccccc23)c1O
AC50 (INS1): 1.8 µM (active)

O=c1sc(/C=N/Nc2ccccc2)c(Cl)n1Cc1ccccc1
EC50 [6]: > 120 µM (not active) | EC50 (H4): 21.4 µM (active)

Cn1cc(/C=N\NC(=O)c2cccs2)c2ccccc21
EC50 [6]: 50.3 µM (active) | EC50 (H4): 37.7 µM (active)
